Reference: US20090239918A1, “SELECTIVE SUBTYPE ALPHA 2 ADRENERGIC AGENTS AND METHODS FOR USE THEREOF” (ALLERGAN, INC., priority 2008, published 2009)

Key:
Alpha 2C receptor = molecular target: T1, Alpha 2C receptor (Homo sapiens, UniProt P18825); assay: RSAT (Receptor Selection and Amplification Technology) assay, alpha 2C; assay type: cell-based; conditions: for EC50: NIH-3T3 cells cotransfected with receptor and Gq/i5, na = not active; for RSAT (rel eff) Alpha 2C, intrinsic activity: ratio of maximal effect of the drug to maximal effect of standard full agonist brimonidine
T1 construct: expressed in transfected cells; host or cells: NIH-3T3
T1 sequence (P18825 1-462): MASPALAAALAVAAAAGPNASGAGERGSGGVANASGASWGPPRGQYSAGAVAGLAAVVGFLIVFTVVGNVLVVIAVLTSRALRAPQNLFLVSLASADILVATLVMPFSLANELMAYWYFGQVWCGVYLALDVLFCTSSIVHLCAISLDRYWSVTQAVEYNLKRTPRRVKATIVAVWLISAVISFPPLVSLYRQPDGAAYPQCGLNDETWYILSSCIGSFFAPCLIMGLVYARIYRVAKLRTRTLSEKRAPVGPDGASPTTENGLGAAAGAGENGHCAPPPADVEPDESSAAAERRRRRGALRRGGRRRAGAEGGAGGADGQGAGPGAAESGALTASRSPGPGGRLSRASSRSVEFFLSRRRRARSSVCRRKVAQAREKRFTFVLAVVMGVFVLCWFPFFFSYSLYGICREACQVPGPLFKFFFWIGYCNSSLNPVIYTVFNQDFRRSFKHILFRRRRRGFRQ
Procedure: (§1) 76, pp. 308-311 (incorporated herein by reference) and is also described below.
(§2) The RSAT assay measures a receptor-mediated loss of contact inhibition that results in selective proliferation of receptor-containing cells in a mixed population of confluent cells. The increase in cell number is assessed with an appropriate transfected marker gene such as β-galactosidase, the activity of which can be easily measured in a 96-well format. Receptors that activate the G protein, Gq, elicit this response. Alpha 2 receptors, which normally couple to Gi, activate the RSAT response when coexpressed with a hybrid Gq protein that has a Gi receptor recognition domain, called Gq/i5.
(§3) NIH-3T3 cells are plated at a density of 2×10^6 cells in 15 cm dishes and maintained in Dulbecco's modified Eagle's medium supplemented with 10% calf serum. One day later, cells are cotransfected by calcium phosphate precipitation with mammalian expression plasmids encoding p-SV-β-galactosidase (5-10 μg), receptor (1-2 μg) and G protein (1-2 μg). 40 μg salmon sperm DNA may also be included in the transfection mixture. Fresh media is added on the following day and 1-2 days later, cells are harvested and frozen in 50 assay aliquots. Cells are thawed and 100 μl added to 100 μL aliquots of various concentrations of drugs in triplicate in 96-well dishes. Incubations continue 72-96 hr at 37° C. After washing with phosphate-buffered saline, β-galactosidase enzyme activity is determined by adding 200 μL of the chromogenic substrate (consisting of 3.5 mM o-nitrophenyl-β-D-galactopyranoside and 0.5% nonidet P-40 in phosphate buffered saline), incubating overnight at 30° C. and measuring optical density at 420 nm. The absorbance is a measure of enzyme activity, which depends on cell number and reflects a receptor-mediated cell proliferation. The efficacy or intrinsic activity is calculated as a ratio of the maximal effect of the drug to the maximal effect of a standard full agonist for each receptor subtype. Brimonidine, the chemical structure of which is shown below, is used as the standard agonist for the alpha 2B and alpha 2C receptors.

Alpha 2B receptor = molecular target: T2, Alpha 2B receptor (Homo sapiens, UniProt P18089); assay: RSAT (Receptor Selection and Amplification Technology) assay, alpha 2B; assay type: cell-based; conditions: for EC50: NIH-3T3 cells cotransfected with receptor and Gq/i5, na = not active; for RSAT (rel eff) Alpha 2B, intrinsic activity: ratio of maximal effect of the drug to maximal effect of standard full agonist brimonidine
T2 construct: expressed in transfected cells; host or cells: NIH-3T3
T2 sequence (P18089 1-450): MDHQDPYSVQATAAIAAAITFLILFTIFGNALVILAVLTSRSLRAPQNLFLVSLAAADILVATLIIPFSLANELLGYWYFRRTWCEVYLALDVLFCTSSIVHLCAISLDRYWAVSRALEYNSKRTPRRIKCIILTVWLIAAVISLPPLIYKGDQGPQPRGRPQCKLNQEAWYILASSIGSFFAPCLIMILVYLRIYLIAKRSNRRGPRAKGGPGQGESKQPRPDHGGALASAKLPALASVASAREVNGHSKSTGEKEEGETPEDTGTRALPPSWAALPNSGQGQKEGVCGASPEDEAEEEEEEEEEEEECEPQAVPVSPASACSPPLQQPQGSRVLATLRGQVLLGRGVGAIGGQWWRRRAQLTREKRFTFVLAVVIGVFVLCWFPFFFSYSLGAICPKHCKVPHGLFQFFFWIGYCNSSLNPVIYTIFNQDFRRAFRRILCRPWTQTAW
Procedure: as §1, §2, §3

Row | Structure (SMILES) | EC50 (Alpha 2C receptor) [nM] | RSAT (rel eff) Alpha 2C, intrinsic activity (Alpha 2C receptor) | EC50 (Alpha 2B receptor) [nM] | RSAT (rel eff) Alpha 2B, intrinsic activity (Alpha 2B receptor)
1 | Clc1cccc(C(Cc2ccccc2)/N=C2\NCCO2)c1 (centres unmarked) | 4.39 | 0.37 | 7.14 | 0.83
2 | Fc1c(Cl)cccc1C(Cc1ccccc1)N=C1NCCN1 (centres unmarked) | 1.97 | 0.39 | 3.57 | 0.85
3 | Cc1ccc(CC(/N=C2/NCCS2)c2cccc(Cl)c2)cc1 (centres unmarked) | 11.8 | 0.45 | 7.32 | 0.76
4 | Cc1cccc(CC(/N=C2\NCCO2)c2cccc(Cl)c2)c1 (centres unmarked) | 8.56 | 0.63 | 2.79 | 0.92
5 | Cc1ccccc1CC(/N=C1\NCCO1)c1cccc(Cl)c1 (centres unmarked) | 1.46 | 0.39 | 1.52 | 0.87
6 | Oc1cccc(CC(NC2=NCCN2)c2cccc(Cl)c2Cl)c1 (centres unmarked) | – | – | 1.55 | 1.05
7 | Cc1cccc(CC(N=C2NCCN2)c2cccc(Cl)c2)c1 (centres unmarked) | 3.7 | 0.38 | 1.52 | 0.81
8 | Cc1ccccc1CC(/N=C1/NCCS1)c1cccc(Cl)c1 (centres unmarked) | 8.34 | 0.46 | 3.29 | 0.89
9 | Fc1c(Cl)cccc1C(Cc1ccccc1)/N=C1\NCCO1 (centres unmarked) | 2.57 | 0.32 | 2.79 | 0.93
10 | Cc1cccc(C(Cc2ccccc2)/N=C2\NCCO2)c1C (centres unmarked) | 13.4 | 0.39 | 3.48 | 0.89
11 | Cc1cccc(C(Cc2ccccc2)/N=C2/NCCS2)c1C (centres unmarked) | 9.48 | 0.45 | 3.69 | 0.89
12 | Fc1ccc(CC(N=C2NCCN2)c2cccc(Cl)c2Cl)cc1 (centres unmarked) | – | – | 3.73 | 0.89
13 | Fc1cccc(Cl)c1CC(N=C1NCCN1)c1cccc(Cl)c1Cl (centres unmarked) | – | – | 12.5 | 0.89
14 | Clc1cccc(C(Cc2ccccc2Br)NC2=NCCO2)c1 (centres unmarked) | – | – | 0.86 | 0.92
15 | c1ccc(CC(N=C2NCCN2)c2ccccc2)cc1 (centres unmarked) | – | – | 6.38 | 0.77
16 | Cc1c(F)cccc1CC(N=C1NCCN1)c1cccc(Cl)c1Cl (centres unmarked) | 3.54 | 0.31 | 8.04 | 0.95
17 | Fc1c(Cl)cccc1C(Cc1ccccc1)/N=C1/NCCS1 (centres unmarked) | 6.48 | 0.38 | 4.54 | 0.89
18 | Clc1ccc(CC(N=C2NCCN2)c2cccc(Cl)c2Cl)c(Cl)c1 (centres unmarked) | – | – | 2.79 | 1.17

Row | Structure (SMILES) | EC50 (Alpha 2C receptor) [nM] | RSAT (rel eff) Alpha 2C, intrinsic activity (Alpha 2C receptor) | EC50 (Alpha 2B receptor) [nM] | RSAT (rel eff) Alpha 2B, intrinsic activity (Alpha 2B receptor)
19 | Cc1ccc(CC(N=C2NCCN2)c2cccc(Cl)c2)cc1 (centres unmarked) | – | – | 5.61 | 0.69
20 | Clc1ccc(Cl)c(CC(N=C2NCCN2)c2cccc(Cl)c2Cl)c1 (centres unmarked) | 3.92 | 0.39 | 1.02 | 0.98
21 | COc1ccccc1CC(NC1=NCCO1)c1cccc(Cl)c1 (centres unmarked) | – | – | 0.63 | 0.91
22 | Cc1cccc(CC(/N=C2/NCCS2)c2cccc(Cl)c2)c1 (centres unmarked) | 4.33 | 0.44 | 2.96 | 0.82
23 | c1ccc(CC(/N=C2/NCCS2)c2ccccc2)cc1 (centres unmarked) | 9.63 | 0.42 | 5.43 | 0.90
24 | Clc1cccc(C(Cc2ccccc2Br)N=C2NCCN2)c1Cl (centres unmarked) | – | – | 3.24 | 0.89
25 | Cc1c(Cl)cccc1C(Cc1ccccc1)N=C1NCCN1 (centres unmarked) | – | – | 7.64 | 0.77
26 | Clc1cc(Cl)cc(CC(N=C2NCCN2)c2cccc(Cl)c2Cl)c1 (centres unmarked) | 5.74 | 0.42 | 0.9 | 1.20
27 | COc1ccccc1CC(NC1=NCCN1)c1cccc(Cl)c1 (centres unmarked) | – | – | 0.61 | 0.89
28 | Clc1cccc(C(Cc2ccccc2)N=C2NCCN2)c1Cl (centres unmarked) | – | – | 3.09 | 0.89
29 | COc1cccc(CC(N=C2NCCN2)c2cccc(Cl)c2Cl)c1 (centres unmarked) | – | – | 1.91 | 1.00
30 | Clc1cccc(C(Cc2ccccc2)/N=C2/NCCS2)c1 (centres unmarked) | 4.71 | 0.33 | 6.49 | 0.89
31 | c1ccc(CC(/N=C2\NCCO2)c2ccccc2)cc1 (centres unmarked) | 3.36 | 0.45 | 3.69 | 0.95
32 | Clc1cccc(C(Cc2ccccc2)N=C2NCCN2)c1 (centres unmarked) | – | – | 5.91 | 0.76
33 | Cc1ccc(CC(/N=C2\NCCO2)c2cccc(Cl)c2)cc1 (centres unmarked) | 6.78 | 0.46 | 5.11 | 0.74
34 | Cc1cccc(C(Cc2ccccc2)N=C2NCCN2)c1C (centres unmarked) | – | – | 2.54 | 0.83
35 | Clc1ccc(CC(NC2=NCCN2)c2cccc(Cl)c2Cl)cc1Cl (centres unmarked) | – | – | 10.8 | 0.96
36 | Cc1ccccc1CC(N=C1NCCN1)c1cccc(Cl)c1 (centres unmarked) | – | – | 1.92 | 0.87
